Key:
Format in all cases: biochemical
PI3Kδ [1] = molecular target: T1, PI3Kδ (Homo sapiens, UniProt O00329); experiment: PI3Kδ kinase profiling, HTRF PIP3 displacement assay (Reaction Biology); conditions: for inhibition at 1 µM: compound 1 μM, ATP 10 μM, read-out: PI3Kδ @ 1 μM (% Inh)
T1 construct: purchased Reaction Biology Corporation
Description: (§1) Compounds of the invention were profiled in a 10 dose IC50 panel against BTK and PI3Kδ, both provided by Reaction Biology Corporation.
(§2) PI3Kδ assay: The PIP3 product is detected by displacement of biotin-PIP3 from an energy transfer complex consisting of Europium labeled anti-GST monoclonal antibody, a GST-tagged pleckstrin homology (PH) domain, biotinylated PIP3 and Streptavidin-Allophycocyanin (APC). Excitation of Europium in the complex results in an energy transfer to the APC and a fluorescent emission at 665 nm. The PIP3 product formed by PI3-Kinase (h) activity displaces biotin-PIP3 from the complex resulting in a loss of energy transfer and thus a decrease in signal. This is a 3-step reaction: First, the kinase reaction with PIP2 substrate is carried out in the presence of ATP (10 μM), and the reaction is quenched with stop Solution, and then finally detect by adding Detection Mixture followed by incubation (10 min). Reaction procedure: 1) Prepare substrate in freshly prepared Reaction Buffer. 2) Deliver kinase into the substrate solution and gently mix. 3) Deliver compounds in 100% DMSO (1 μM) into the kinase reaction mixture by Acoustic technology (Echo550; nanoliter range), incubate for 10 min at RT. 4) Deliver ATP into the reaction mixture to initiate the reaction. 5) Incubate for 30 min at 30° C. 6) Quench the reaction with Stop Solution. 7) Add Detection Mixture, and incubate for overnight. 8) Measure HTRF: Ex=320 nm, ratio of Em=615 nm and Em=665 nm. The emission ratio is converted into μM PIP3 production based on PIP3 standard curves. The nonlinear regression to obtain the standard curve and IC50 values are performed using Graphpad Prism software. Assay Buffer: HEPES 50 mM (pH7.0), NaN3 0.02%, BSA 0.01%, Orthovanadate 0.1 mM, 1% DMSO. Detection buffer: HEPES 10 mM (pH7.0), BSA 0.02%, KF 0.16 M, EDTA 4 mM. Substrate: 10 μM PIP2 substrate (PI(4,5)P2).

TEC = molecular target: T2, TEC (Homo sapiens, UniProt P42680); experiment: TEC kinase profiling (BTK protocol); conditions: compound 0.3 μM; read-out: TEC @ 0.3 μM (% Inh)
T2 construct: purchased Reaction Biology Corporation
T2 sequence (P42680 1-631): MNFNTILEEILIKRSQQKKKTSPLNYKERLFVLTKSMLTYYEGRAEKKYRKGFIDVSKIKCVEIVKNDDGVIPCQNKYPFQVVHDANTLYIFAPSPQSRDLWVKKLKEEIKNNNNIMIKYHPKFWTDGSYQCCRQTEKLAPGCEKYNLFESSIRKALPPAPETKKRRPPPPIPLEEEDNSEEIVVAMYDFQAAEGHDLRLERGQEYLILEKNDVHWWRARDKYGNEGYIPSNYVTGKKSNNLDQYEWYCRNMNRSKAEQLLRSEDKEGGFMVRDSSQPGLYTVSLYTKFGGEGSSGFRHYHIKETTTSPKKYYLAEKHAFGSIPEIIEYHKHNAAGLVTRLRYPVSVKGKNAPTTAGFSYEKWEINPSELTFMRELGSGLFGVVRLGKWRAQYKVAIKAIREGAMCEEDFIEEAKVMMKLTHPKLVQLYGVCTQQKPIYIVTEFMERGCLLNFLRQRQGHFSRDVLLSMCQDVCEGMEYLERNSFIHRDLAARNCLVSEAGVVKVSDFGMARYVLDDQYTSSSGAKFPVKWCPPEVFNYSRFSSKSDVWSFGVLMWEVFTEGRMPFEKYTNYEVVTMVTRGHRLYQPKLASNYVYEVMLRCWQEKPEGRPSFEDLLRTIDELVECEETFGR
Protocol: (§3) BTK assay: In vitro profiling protein kinases was performed using the “HotSpot” assay platform. Briefly, specific kinase/substrate pairs along with required cofactors were prepared in reaction buffer. Compounds were prepared as 10 mM stock solutions in DMSO. Compounds were delivered into the reaction, followed 15-20 minutes later by addition of a mixture of ATP (Sigma, St. Louis Mo.) and ^33P ATP (Perkin Elmer, Waltham Mass.) to a final concentration of 10 μM. Reactions were carried out at RT for 120 min, followed by spotting of the reactions onto P81 ion exchange filter paper (Whatman Inc., Piscataway, N.J.). Unbound phosphate was removed by extensive washing of filters in 0.75% Phosphoric acid. […] ICso values and curve fits were obtained using Prism (GraphPad Software). Buffer Conditions: 20 mM Hepes (pH 7.5), 10 mM MgCl2, 1 mM EGTA, 0.02% Brij35, 0.02 mg/mL BSA, 0.1 mM Na3VO4, 2 mM DTT, 1% DMSO.
Compounds of the invention were profiled in a 10 dose IC50 panel against BMX/ETK, ITK and TEC kinases, provided by Reaction Biology Corporation, applied to the BTK protocol provided in Example B1.

PI3Kγ = molecular target: T3, PI3Kγ (Homo sapiens, UniProt P48736); experiment: PI3K isoform profiling, PI3Kγ (PI3Kδ protocol); conditions: for inhibition at 0.3 µM: compound 0.3 μM, read-out: PI3Kγ @ 0.3 μM (% Inh); for IC50: 10 dose IC50
T3 construct: purchased Reaction Biology Corporation
Description: as §2
Compounds of the invention were profiled in a 10 dose IC50 panel against PI3Kα, PI3Kβ, and PI3Kγ kinases, provided by Reaction Biology Corporation, applied to the PI3Kδ protocol provided in Example B1.

BTK = molecular target: T4, BTK (Homo sapiens, UniProt Q06187); experiment: BTK kinase profiling, HotSpot radiometric assay (Reaction Biology); conditions: for inhibition at 0.1 µM: compound 0.1 μM, read-out: BTK @ 0.1 μM (% Inh); for inhibition at 0.1 µM / inhibition at 1 µM / inhibition at 0.01 µM: ATP 10 μM; for inhibition at 1 µM: compound 1 μM, read-out: BTK @ 1 μM (% Inh); for inhibition at 0.01 µM: compound 0.01 μM, read-out: BTK @ 0.01 μM (% Inh)
T4 construct: purchased Reaction Biology Corporation
Protocol: as §1, §3

PI3Kδ [2] = molecular target: T1, PI3Kδ; experiment: PI3Kδ kinase profiling, HTRF PIP3 displacement assay (Reaction Biology); conditions: ATP 10 μM; for inhibition at 0.1 µM: compound 0.1 μM, read-out: PI3Kδ @ 0.1 μM (% Inh); for inhibition at 0.01 µM: compound 0.01 μM, read-out: PI3Kδ @ 0.01 μM (% Inh)

T4 sequence (Q06187 whole entry): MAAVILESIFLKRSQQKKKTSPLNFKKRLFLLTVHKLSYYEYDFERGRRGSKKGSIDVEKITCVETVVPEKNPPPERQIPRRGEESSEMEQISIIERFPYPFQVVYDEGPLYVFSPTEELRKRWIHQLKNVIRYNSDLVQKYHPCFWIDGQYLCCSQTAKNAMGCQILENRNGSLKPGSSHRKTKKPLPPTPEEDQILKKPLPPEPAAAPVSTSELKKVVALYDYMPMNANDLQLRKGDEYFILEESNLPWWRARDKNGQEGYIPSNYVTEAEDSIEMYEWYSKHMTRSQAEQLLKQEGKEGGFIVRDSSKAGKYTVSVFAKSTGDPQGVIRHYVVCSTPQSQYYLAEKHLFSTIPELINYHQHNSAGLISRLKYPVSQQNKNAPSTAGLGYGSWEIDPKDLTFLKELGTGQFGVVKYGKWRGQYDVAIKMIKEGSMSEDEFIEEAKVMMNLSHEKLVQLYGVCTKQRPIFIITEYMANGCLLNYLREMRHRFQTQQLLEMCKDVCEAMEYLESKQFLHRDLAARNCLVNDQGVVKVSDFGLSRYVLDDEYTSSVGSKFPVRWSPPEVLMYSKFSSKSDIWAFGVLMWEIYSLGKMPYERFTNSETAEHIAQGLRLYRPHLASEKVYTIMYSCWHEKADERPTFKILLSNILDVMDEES
T3 sequence (P48736 whole entry, canonical isoform): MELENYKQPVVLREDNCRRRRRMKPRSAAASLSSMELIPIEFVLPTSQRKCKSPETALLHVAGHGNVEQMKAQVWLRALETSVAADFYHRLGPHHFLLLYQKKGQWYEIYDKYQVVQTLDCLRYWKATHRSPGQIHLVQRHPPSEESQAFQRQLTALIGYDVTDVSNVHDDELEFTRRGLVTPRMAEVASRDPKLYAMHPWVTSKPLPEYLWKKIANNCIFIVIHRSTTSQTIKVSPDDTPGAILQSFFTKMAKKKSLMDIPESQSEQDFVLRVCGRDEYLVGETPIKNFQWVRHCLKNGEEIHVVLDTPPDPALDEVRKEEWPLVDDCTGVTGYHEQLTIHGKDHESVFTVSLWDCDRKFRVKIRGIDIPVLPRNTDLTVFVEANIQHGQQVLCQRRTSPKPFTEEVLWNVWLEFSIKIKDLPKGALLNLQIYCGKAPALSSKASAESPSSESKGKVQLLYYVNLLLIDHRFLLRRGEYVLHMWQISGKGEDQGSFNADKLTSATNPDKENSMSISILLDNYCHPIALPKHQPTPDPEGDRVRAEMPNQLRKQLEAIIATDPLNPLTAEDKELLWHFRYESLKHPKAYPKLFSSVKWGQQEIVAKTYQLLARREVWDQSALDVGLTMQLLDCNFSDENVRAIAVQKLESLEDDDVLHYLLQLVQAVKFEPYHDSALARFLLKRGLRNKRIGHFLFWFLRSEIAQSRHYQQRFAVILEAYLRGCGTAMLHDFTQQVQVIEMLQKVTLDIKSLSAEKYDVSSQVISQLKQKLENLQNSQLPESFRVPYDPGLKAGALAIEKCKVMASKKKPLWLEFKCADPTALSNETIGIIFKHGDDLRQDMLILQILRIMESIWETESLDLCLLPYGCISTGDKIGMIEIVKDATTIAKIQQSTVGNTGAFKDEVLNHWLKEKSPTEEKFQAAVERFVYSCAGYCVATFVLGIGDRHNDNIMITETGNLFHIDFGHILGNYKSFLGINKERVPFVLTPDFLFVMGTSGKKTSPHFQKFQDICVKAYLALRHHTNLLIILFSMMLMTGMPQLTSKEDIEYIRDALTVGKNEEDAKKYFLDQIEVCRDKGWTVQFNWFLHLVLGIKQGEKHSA
T1 sequence (O00329 whole entry): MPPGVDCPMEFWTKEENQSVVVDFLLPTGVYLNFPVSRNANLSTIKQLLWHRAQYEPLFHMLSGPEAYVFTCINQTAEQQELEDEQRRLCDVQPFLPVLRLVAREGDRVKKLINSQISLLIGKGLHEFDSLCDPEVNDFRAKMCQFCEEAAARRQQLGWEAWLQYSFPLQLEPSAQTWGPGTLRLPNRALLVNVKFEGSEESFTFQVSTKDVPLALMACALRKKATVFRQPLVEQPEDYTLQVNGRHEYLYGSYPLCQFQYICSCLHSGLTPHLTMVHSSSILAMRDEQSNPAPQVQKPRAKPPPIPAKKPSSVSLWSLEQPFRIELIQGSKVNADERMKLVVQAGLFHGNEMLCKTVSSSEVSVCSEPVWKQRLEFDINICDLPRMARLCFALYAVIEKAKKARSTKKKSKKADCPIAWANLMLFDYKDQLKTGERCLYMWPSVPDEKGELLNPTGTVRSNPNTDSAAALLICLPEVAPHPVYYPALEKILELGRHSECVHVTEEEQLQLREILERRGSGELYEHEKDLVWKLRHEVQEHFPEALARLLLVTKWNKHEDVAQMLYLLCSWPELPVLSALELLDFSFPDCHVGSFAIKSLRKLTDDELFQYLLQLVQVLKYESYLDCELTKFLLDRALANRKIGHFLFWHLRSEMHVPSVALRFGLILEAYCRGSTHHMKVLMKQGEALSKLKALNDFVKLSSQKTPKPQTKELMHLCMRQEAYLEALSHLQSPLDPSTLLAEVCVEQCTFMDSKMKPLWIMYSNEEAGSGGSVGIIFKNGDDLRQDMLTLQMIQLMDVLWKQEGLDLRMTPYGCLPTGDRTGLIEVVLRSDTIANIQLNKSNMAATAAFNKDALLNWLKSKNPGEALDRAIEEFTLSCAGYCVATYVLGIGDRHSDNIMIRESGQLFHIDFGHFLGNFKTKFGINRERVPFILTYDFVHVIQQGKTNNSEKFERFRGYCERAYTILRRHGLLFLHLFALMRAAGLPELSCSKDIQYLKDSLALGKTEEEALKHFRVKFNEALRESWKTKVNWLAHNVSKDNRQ
T1 sequence (P27986 whole entry partner): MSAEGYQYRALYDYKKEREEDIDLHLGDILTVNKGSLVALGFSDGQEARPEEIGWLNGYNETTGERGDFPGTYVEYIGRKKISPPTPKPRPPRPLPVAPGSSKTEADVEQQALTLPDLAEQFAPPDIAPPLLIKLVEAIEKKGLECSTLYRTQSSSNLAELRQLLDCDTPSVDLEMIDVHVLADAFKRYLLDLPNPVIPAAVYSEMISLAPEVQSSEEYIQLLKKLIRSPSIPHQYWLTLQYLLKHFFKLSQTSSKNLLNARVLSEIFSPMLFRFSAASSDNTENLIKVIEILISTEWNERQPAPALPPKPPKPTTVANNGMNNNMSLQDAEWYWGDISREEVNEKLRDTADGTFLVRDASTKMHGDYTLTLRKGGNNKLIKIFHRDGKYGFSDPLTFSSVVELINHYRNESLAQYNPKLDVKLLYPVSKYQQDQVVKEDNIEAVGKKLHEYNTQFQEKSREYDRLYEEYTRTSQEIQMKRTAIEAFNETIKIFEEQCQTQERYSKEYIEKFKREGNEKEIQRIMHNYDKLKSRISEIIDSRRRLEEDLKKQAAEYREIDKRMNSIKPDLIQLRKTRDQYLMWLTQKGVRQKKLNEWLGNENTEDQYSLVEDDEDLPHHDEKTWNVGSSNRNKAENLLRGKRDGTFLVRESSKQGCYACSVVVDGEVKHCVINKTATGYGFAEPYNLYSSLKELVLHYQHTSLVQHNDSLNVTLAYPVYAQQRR

SMILES	IC50 (PI3Kδ [1]) [nM]	inhibition at 0.3 µM (TEC) [%]	inhibition at 0.3 µM (PI3Kγ) [%]	IC50 (BTK) [nM]	IC50 (PI3Kγ) [nM]	inhibition at 0.1 µM (PI3Kδ [2]) [%]	inhibition at 0.1 µM (BTK) [%]	inhibition at 1 µM (PI3Kδ [1]) [%]	inhibition at 1 µM (BTK) [%]	inhibition at 0.01 µM (PI3Kδ [2]) [%]	inhibition at 0.01 µM (BTK) [%]
Nc1ncnc2c1c(-c1cc(O)cc(F)c1)nn2CCNc1ccccc1 [Compound 1, 3-(4-amino-1-(2-(phenylamino)ethyl)-1H-pyrazolo [3,4-d]pyrimidin-3-yl)-5-fluorophenol]	10	-1.13	49.7	167							
C=CC(=O)N(CCn1nc(-c2cc(O)cc(F)c2)c2c(N)ncnc21)c1ccccc1 [Compound 2, N-(2-(4-amino-3-(3-fluoro-5-hydroxyphenyl)-1H-pyrazolo[3,4-d]pyrimidin-1-yl)ethyl)-N-phenylacrylamide]	51.6	72.6	-2.49	3.9	9070	39.1	94.1				
C=CC(=O)N(CCn1nc(-c2cc(O)cc(F)c2)c2c(N)ncnc21)Cc1ccccc1 [Compound 5, N-(2-(4-amino-3-(3-fluoro-5-hydroxyphenyl)-1H-pyrazolo[3,4-d]pyrimidin-1-yl)ethyl)-N-benzylacrylamide]	13	48.8	34.9	3.7	10500	70.3	94				
C=CC(=O)N(CCn1nc(-c2cc(O)cc(F)c2)c2c(N)ncnc21)Cc1ccc(F)cc1 [Compound 10, N-{2-[4-amino-3-(3-fluoro-5-hydroxyphenyl)-1H-pyrazolo [3,4-d]pyrimidin-1-yl]ethyl}-N-[(4-fluorophenyl)methyl]prop-2-enamide]	12.8	66.1	-3.88	3		67.2	95.4	89	98.3		
C=CC(=O)N(CCn1nc(-c2cc(O)cc(F)c2)c2c(N)ncnc21)Cc1ccccc1F [Compound 11, N-[2-[4-amino-3-(3-fluoro-5-hydroxy-phenyl)pyrazolo[3,4-d]pyrimidin-1-yl]ethyl]-N-[(2-fluorophenyl)methyl]prop-2-enamide]	32	68.7	21.4	7.4		54.2	93.8	82.4	97.2		
C=CC(=O)N(CCn1nc(-c2cc(O)cc(F)c2)c2c(N)ncnc21)Cc1ccc(Cl)cc1 [Compound 12, N-{2-[4-amino-3-(3-fluoro-5-hydroxyphenyl)-1H-pyrazolo[3,4-d]pyrimidin-1-yl]ethyl}-N-[(4-chlorophenyl)methyl]prop-2-enamide]	9.7	71.6	21.5	0.4		66.7	94.4			37.7	62.8
C=CC(=O)N(CCn1nc(-c2cc(O)c(F)c(F)c2)c2c(N)ncnc21)Cc1ccc(Cl)cc1 [Compound 16, N-{2-[4-amino-3-(3,4-difluoro-5-hydroxyphenyl)-1H-pyrazolo[3,4-d]pyrimidin-1-yl]ethyl}-N-[(4-chlorophenyl)methyl]prop-2-enamide]	12.4	75	14.6	2.7		73	93.8			48.3	63.4

From patent US20160272645A1, “Heterocyclic Compounds and Methods of Use” (MEDIVATION TECHNOLOGIES, INC., priority 2013, published 2016)
